In US10947285B2, “Compounds, compositions and uses thereof for improvement of bone disorders” (Amolyt Pharma, priority 2017, dated 2021):
Non-standard residues stand in square brackets, D forms with d. Residues, ends and D or L forms follow the SMILES beside them. Primed or numbered codes have the meaning given here. No end group written: not given here. *: point of attachment. PEG20′ = PEG20 chain (pegylated), attached via a cysteine; C16 diacid = O=C(O)CCCCCCCCCCCCCCC(=O)*; Arachidoyl = CCCCCCCCCCCCCCCCCCCC(=O)*; Stearoyl = CCCCCCCCCCCCCCCCCC(=O)*; Palmitoyl = CCCCCCCCCCCCCCCC(=O)*; Myristoyl = CCCCCCCCCCCCCC(=O)*

Assays:
[1] = system: MC-3T3 E1 clone 4 (CL4) osteoblast cells; test: in vitro osteoblast differentiation bioassay (stimulation of osteocalcin protein synthesis); format: cell-based
Procedure: Each peptide was tested in a biologic assay measuring its ability to stimulate differentiation of osteoblast cells over a 18-21 day interval (Table 8) or a 14-15 day interval (Table 9) as assessed by the stimulation of osteocalcin protein synthesis. MC-3T3 E1 clone 4 (CL4) osteoblast cells were obtained from ATCC (Manassas, Va., USA). Cells were cultured in α-MEM containing 10% fetal bovine serum (FBS; Thermo Fisher Scientific, Pittsburgh, Pa., USA). After confluency, culture medium was changed to differentiation medium (DM), which contained 10% FBS plus 50 μg/mL ascorbic acid and 4 mM β-glycerol phosphate, with or without a test peptide (1 μg/mL in Table 8 or 1 μmol/L in Table 9). Fresh DM, with or without test peptide, was applied every 72 hours. The cell monolayers were lysed in a modified radioimmunoprecipitation assay (RIPA) buffer. Total cellular protein in the lysates was determined using BCA (Thermo Fisher Scientific, Rockford, Ill., USA). Cell proteins are separated on SDS-PAGE gel and transferred on PVDF membrane for analysis. Osteocalcin detection was performed using anti-osteocalcin antibody at 1:200 dilution (Santa Cruz Biotechnology, Inc, Santa Cruz, Calif., USA) or at 1:3000 dilution (NPT Inc., Chapel Hill, N.C., USA) and visualized using enhanced chemiluminescence (Thermo Fisher Scientific, Rockford, Ill., USA).
The peptide was tested at different concentrations in a biologic assay measuring its ability to stimulate differentiation of osteoblast cells over a 18 day interval as assessed by the stimulation of osteocalcin protein synthesis. MC-3T3 E1 clone 4 (CL4) osteoblast cells were obtained from ATCC (Manassas, Va., USA). Cells were cultured in α-MEM containing 10% fetal bovine serum (FBS; Thermo Fisher Scientific, Pittsburgh, Pa., USA). After confluency, culture medium was changed to differentiation medium (DM), which contained 10% FBS plus 50 μg/mL ascorbic acid and 4 mM β-glycerol phosphate, with or without an ascending dose of the peptide from 0.1 μg/mL to 4 μg/mL. Fresh DM, with or without the peptide, was applied every 72 hours. The cell monolayers were lysed in a modified radioimmunoprecipitation assay (RIPA) buffer. Total cellular protein in the lysates was determined using BCA (Thermo Fisher Scientific, Rockford, Ill., USA). Cell proteins are separated on SDS-PAGE gel and transferred on PVDF membrane for analysis. Osteocalcin detection was performed using anti-osteocalcin antibody at 1:200 dilution (Santa Cruz Biotechnology, Inc, Santa Cruz, Calif., USA) and visualized using enhanced chemiluminescence (Thermo Fisher Scientific, Rockford, Ill., USA).
Each peptide was tested in a biologic assay measuring its ability to stimulate differentiation of osteoblast cells over a 15 day interval as assessed by the stimulation of osteocalcin protein synthesis. MC-3T3 E1 clone 4 (CL4) osteoblast cells were obtained from ATCC (Manassas, Va., USA). Cells were cultured in α-MEM containing 10% fetal bovine serum (FBS; Thermo Fisher Scientific, Pittsburgh, Pa., USA). After confluency, culture medium was changed to differentiation medium (DM), which contained 10% FBS plus 50 μg/mL ascorbic acid and 4 mM β-glycerol phosphate, with or without a test peptide (1 μg/mL). Fresh DM, with or without test peptide, was applied every 72 hours for 15 days. The cell monolayers were lysed in a modified radioimmunoprecipitation assay (RIPA) buffer. Total cellular protein in the lysates was determined using BCA (Thermo Fisher Scientific, Rockford, Ill., USA). Cell proteins are separated on SDS-PAGE gel and transferred on PVDF membrane for analysis. Osteocalcin detection was performed using anti-osteocalcin antibody at 1:200 dilution (Santa Cruz Biotechnology, Inc, Santa Cruz, Calif., USA) and visualized using enhanced chemiluminescence (Thermo Fisher Scientific, Rockford, Ill., USA). […]

[2] = Pharmacokinetic of acylated HBD-1 fragment analogs in male Sprague Dawley rats after subcutaneous injection; format: in vivo; details: Table 24, sc, 1 μmol net peptide/kg
Procedure: The peptides were reconstituted in saline (0.9% NaCl). Three male Sprague Dawley rats (approximately 6 weeks of age) were used per group. Subcutaneous doses were administered into the right flank of each animal at the target dose level of 1 μmol net peptide/kg. Following dosing, serial whole blood samples (ca. 0.3 mL) were collected from retro-orbital sinus into K2EDTA treated containers. Following each blood sample collection, samples were placed into a cooling block at 4° C. Samples were collected prior to dosing then at 15 and 30 minutes then 1, 2, 4, 6, 8 and 24 hours post dose for subcutaneous injection. Blood samples were centrifuged at 3500×rpm for 10 minutes at 4° C. and resultant plasma aspirated off into clean fully, labelled tubes. Plasma samples were snap frozen following aspiration then stored at −80° C. The peptides were extracted with acetonitrile:water (75:25, v/v) and analyzed using developed LC-MS/MS methods as described in Example 9. The limits of detection of these methods are 0.003 nmol/mL for HBD1 (1-13) with palmitic acid at the N-terminus (C16:0), 0.0008 nmol/mL for HBD1 (3-11) with palmitic acid at the N-terminus (C16:0), 0.0070 nmol/mL for HBD1 (3-11) with stearic acid at the N-terminus (C18:0), and 0.0015 nmol/mL for HBD1 (3-11) with myristic acid at the N-terminus (C14:0), HBD1 (3-11) with arachidic acid at the N-terminus (C20:0), HBD1 (3-11) with palmitic diacid at the N-terminus (C16:0-diacid), HBD1 (3-11) with palmitic acid at the C-terminus (C16:0). All values below these limits of quantification were considered as zero.

[3] = Stability of HBD1 fragments in human plasma; format: in vitro ADME; details: 24 and 48 hours incubation at 37° C.
Procedure: The peptides were spiked at 1 μg/mL (peptide backbone) into pre-warmed human K2EDTA plasma (at 37° C.) and incubated for up to 48 hours. Aliquots of plasma were extracted at specific time points (0, 24 and 48 hours post spike). Extraction was performed with acetonitrile:water (75:25, v/v) for HBD1 (1-13), HBD1 (1-13) with palmitic acid at the N-terminus (C16:0), HBD1 (3-11) with palmitic acid at the N-terminus (C16:0)) and HBD1 (3-11) with stearic acid at the N-terminus (C18:0) or with acetonitrile:water:formic acid (75:25:0.1, v/v/v) for HBD1 (3-11) and cyclic HBD1 (3-11). The peptides were analyzed using developed LC (C18 reverse phase column)—positive ion electrospray MS/MS methods specific to each peptide. The peak area at each time point was expressed as a percentage of the value obtained for the t=0 minutes time point.

[4] = Table 17, PEGylated fragments, 2 μg/mL, 18-21 day interval

Compound: 63 ([PEG20′]CKHHLGLEEPKKLR; not fully specified (some residues); printed as PEG20-C-KHHLGLEEPKKLR) [compound 63]
- Fold increase vs DM ± SE [1, 4]: 1.4 ± 0.3 fold

Compound: 64 (KHHLGLEEPKKLR; not fully specified; MOD_RES (13)..(13) Pegylated) [compound 64]
- Fold increase vs DM ± SE [1, 4]: 2.2 ± 0.4 fold

Compound: 65 ([PEG20′]CHHLGLEEPKK; not fully specified (some residues); printed as PEG20-C-HHLGLEEPKK) [compound 65]
- Fold increase vs DM ± SE [1, 4]: 1.4 ± 0.1 fold

Compound: 66 (HHLGLEEPKK; not fully specified; MOD_RES (10)..(10) Pegylated) [compound 66]
- Fold increase vs DM ± SE [1, 4]: 2.2 ± 0.2 fold

Compound: 67 ([PEG20′]CHLGLEEPKK; not fully specified (some residues); printed as PEG20-C-HLGLEEPKK) [compound 67]
- Fold increase vs DM ± SE [1, 4]: 1.9 ± 0.2 fold

Compound: CCCCCCCCCCCCCC(=O)N[C@@H](Cc1c[nH]cn1)C(=O)N[C@@H](CC(C)C)C(=O)NCC(=O)N[C@@H](CC(C)C)C(=O)N[C@@H](CCC(=O)O)C(=O)N[C@@H](CCC(=O)O)C(=O)N1CCC[C@H]1C(=O)N[C@@H](CCCCN)C(=O)N[C@@H](CCCCN)C(=O)O [compound 71] (Myristoyl-HLGLEEPKK-OH; C-terminus assumed)
- Tlast (last time point with detectable peptide) [2]: 6 h

Compound: CCCCCCCCCCCCCCCC(=O)N[C@@H](Cc1c[nH]cn1)C(=O)N[C@@H](CC(C)C)C(=O)NCC(=O)N[C@@H](CC(C)C)C(=O)N[C@@H](CCC(=O)O)C(=O)N[C@@H](CCC(=O)O)C(=O)N1CCC[C@H]1C(=O)N[C@@H](CCCCN)C(=O)N[C@@H](CCCCN)C(=O)O [compound 72] (Palmitoyl-HLGLEEPKK-OH)
- Tlast (last time point with detectable peptide) [2]: 8 h
- stability in human plasma (in words) [3]: plasma stability profile similar to that of the corresponding unconjugated linear peptide HBD1 (3-11)

Compound: CCCCCCCCCCCCCCCCCC(=O)N[C@@H](Cc1c[nH]cn1)C(=O)N[C@@H](CC(C)C)C(=O)NCC(=O)N[C@@H](CC(C)C)C(=O)N[C@@H](CCC(=O)O)C(=O)N[C@@H](CCC(=O)O)C(=O)N1CCC[C@H]1C(=O)N[C@@H](CCCCN)C(=O)N[C@@H](CCCCN)C(=O)O [compound 73] (Stearoyl-HLGLEEPKK-OH)
- Tlast (last time point with detectable peptide) [2]: 8 h
- stability in human plasma (in words) [3]: plasma stability profile similar to that of the corresponding unconjugated linear peptide HBD1 (3-11)
- Fold increase vs DM ± SE ([1]; Table 19, dose 1.0 μM, 18 day interval): 3.46 ± 0.47 fold
- Fold increase vs DM ± SE ([1]; Table 19, dose 2.0 μM, 18 day interval): 4.48 ± 0.07 fold
- Fold increase vs DM ± SE ([1]; Table 19, dose 3.0 μM, 18 day interval): 5.66 ± 0.45 fold

Compound: CCCCCCCCCCCCCCCCCCCC(=O)N[C@@H](Cc1c[nH]cn1)C(=O)N[C@@H](CC(C)C)C(=O)NCC(=O)N[C@@H](CC(C)C)C(=O)N[C@@H](CCC(=O)O)C(=O)N[C@@H](CCC(=O)O)C(=O)N1CCC[C@H]1C(=O)N[C@@H](CCCCN)C(=O)N[C@@H](CCCCN)C(=O)O [compound 74] (Arachidoyl-HLGLEEPKK-OH; C-terminus assumed)
- Tlast (last time point with detectable peptide) [2]: 8 h

Compound: CC(C)C[C@H](NC(=O)CNC(=O)[C@H](CC(C)C)NC(=O)[C@H](Cc1c[nH]cn1)NC(=O)CCCCCCCCCCCCCCC(=O)O)C(=O)N[C@@H](CCC(=O)O)C(=O)N[C@@H](CCC(=O)O)C(=O)N1CCC[C@H]1C(=O)N[C@@H](CCCCN)C(=O)N[C@@H](CCCCN)C(=O)O [compound 75] ({C16 diacid}-HLGLEEPKK-OH; C-terminus assumed)
- Tlast (last time point with detectable peptide) [2]: 8 h

Compound: CCCCCCCCCCCCCCCC(=O)NCCCC[C@H](NC(=O)[C@H](CCCCN)NC(=O)[C@@H]1CCCN1C(=O)[C@H](CCC(=O)O)NC(=O)[C@H](CCC(=O)O)NC(=O)[C@H](CC(C)C)NC(=O)CNC(=O)[C@H](CC(C)C)NC(=O)[C@@H](N)Cc1c[nH]cn1)C(=O)O [compound 76] (H-HLGLEEPKK(Palmitoyl)-OH; N-terminus and C-terminus assumed)
- Tlast (last time point with detectable peptide) [2]: 8 h

Compound: CC(C)C[C@@H]1NC(=O)CNC(=O)[C@H](CC(C)C)NC(=O)[C@H](Cc2c[nH]cn2)NC(=O)[C@H](CCCCN)NC(=O)[C@H](CCCCN)NC(=O)[C@@H]2CCCN2C(=O)[C@H](CCC(=O)O)NC(=O)[C@H](CCC(=O)O)NC1=O [compound 77] (cyclo(EEPKKHLGL))
- stability in human plasma (in words) [3]: plasma stability profile similar to that of the corresponding unconjugated linear peptide HBD1 (3-11)

Compound: CCCCCCCCCCCCCCCC(=O)N[C@@H](CCCCN)C(=O)N[C@@H](Cc1c[nH]cn1)C(=O)N[C@@H](Cc1c[nH]cn1)C(=O)N[C@@H](CC(C)C)C(=O)NCC(=O)N[C@@H](CC(C)C)C(=O)N[C@@H](CCC(=O)O)C(=O)N[C@@H](CCC(=O)O)C(=O)N1CCC[C@H]1C(=O)N[C@@H](CCCCN)C(=O)N[C@@H](CCCCN)C(=O)N[C@@H](CC(C)C)C(=O)N[C@@H](CCCNC(=N)N)C(=O)O [compound 78] (Palmitoyl-KHHLGLEEPKKLR-OH)
- Tlast (last time point with detectable peptide) [2]: 8 h
